This assay concerns the target T1, Amine oxidase [flavin-containing] A (Homo sapiens, UniProt P21397).
T1 sequence (P21397 whole entry): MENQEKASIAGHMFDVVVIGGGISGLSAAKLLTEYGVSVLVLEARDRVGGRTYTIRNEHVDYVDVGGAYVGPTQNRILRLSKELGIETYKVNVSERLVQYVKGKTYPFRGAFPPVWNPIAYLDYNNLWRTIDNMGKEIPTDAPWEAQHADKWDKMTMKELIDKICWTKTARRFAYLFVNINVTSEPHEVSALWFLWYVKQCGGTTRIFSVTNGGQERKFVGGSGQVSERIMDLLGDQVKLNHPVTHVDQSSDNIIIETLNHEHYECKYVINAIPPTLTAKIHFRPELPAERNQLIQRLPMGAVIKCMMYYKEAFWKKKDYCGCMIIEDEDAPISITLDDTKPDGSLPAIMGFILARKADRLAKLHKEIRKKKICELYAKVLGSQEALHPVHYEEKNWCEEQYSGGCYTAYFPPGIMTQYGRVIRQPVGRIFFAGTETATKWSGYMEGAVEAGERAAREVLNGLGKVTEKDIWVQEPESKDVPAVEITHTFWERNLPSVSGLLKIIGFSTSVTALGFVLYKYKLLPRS
As to the kind of experiment: biochemical. It counts as cell-based, BTI-TN-5B1-4.

Molecule `CC1CCC/C(=N/Nc2nc(-c3ccccc3)cs2)C1` (centres undefined) returned an IC50 of 37.8 µM. `C[C@@H]1CCC/C(=N/Nc2nc(-c3ccccc3)cs2)C1` displayed an IC50 of 38.6 µM. In the case of `CC1CCC/C(=N/Nc2nc(-c3ccc(Cl)cc3Cl)cs2)C1` (centres undefined), half-maximal inhibition (IC50) was put at 43.8 µM. `C[C@@H]1CCC/C(=N/Nc2nc(-c3ccc(Cl)cc3Cl)cs2)C1` gave an IC50 of 40.6 µM.

The molecule `COc1ccc(-c2csc(N/N=C3/CCC[C@@H](C)C3)n2)cc1` returned an IC50 of 4.26 µM. `CC1CCC/C(=N/Nc2nc(-c3ccc(C#N)cc3)cs2)C1` (centres undefined) returned an IC50 of 20.6 µM. `C[C@@H]1CCC/C(=N/Nc2nc(-c3ccc(C#N)cc3)cs2)C1` yielded an IC50 of 21.9 µM. In turn, `CC1CCC/C(=N/Nc2nc(-c3ccc(Cl)cc3)cs2)C1` (centres undefined) had an IC50 of 23.1 µM. On to `C[C@@H]1CCC/C(=N/Nc2nc(-c3ccc(Cl)cc3)cs2)C1`, for which the IC50 amounted to 22.8 µM.

These data come from ChEMBL document CHEMBL1240510, “Synthesis, stereochemical separation, and biological evaluation of selective inhibitors of human MAO-B: 1-(4-arylthiazol-2-yl)-2-(3-methylcyclohexylidene)hydrazines” (J Med Chem, 2010).
